Measurements reported in patent US5466675A, “Immunological activity of rhamnolipids” (priority 1992, dated 1995).

Experiments:
alkalinephosphatase = experiment: enzyme inhibition, alkalinephosphatase; assay type: biochemical
Procedure: (§1) Rhamnolipid (II) was tested in vitro against a wide array of enzymes.
(§2) All enzyme assays were done spectrophotometrically by computer linked automatic microplate reader (Labsystem Multiskan) and Diode Array spectrophotometer (Perkin Elmer).

citrate bovine blood = experiment: hemolytic activity; assay type: cell-based
Procedure: Hemolytic activity of rhamnolipid (II) could be seen after sedimentation of erythrocytes, when hemoglobin colored the solution. If there was no hemolytic activity, erythrocytes would have precipitated without coloring the solution. For test purposes 1 ml of citrate bovine blood was added to 49 ml of isotonic solution.
Series of test samples were prepared in concentrations ranging from 1.0 mg/ml to 0.01 mg/ml. 1 ml of diluted citric bovine blood was added to 1 ml of diluted test sample. The test tube was gently mixed and left for 0.25 h, 1 h and 24 h, respectively. The lowest dose of rhamnolipid II that caused hemolysis in 15 min. was 0.35 mg/ml; in 1 h was 0.25 mg/ml and in 24 h was 0.125 mg/ml.

Candida albicans = experiment: minimum inhibitory concentration, Candida albicans; assay type: cell-based; conditions: in tested medium
Excerpt: The Minimum inhibitory concentration (MIC) of Rhamnolipid II for Candida albicans, Escherichia coli, Staphylococcus aureus and Pseudomonas aeruginosa was >0.5% in tested medium.

mice C57B1/6 [1] = experiment: range-finding study phase (five doses per day)
[2] = test system: vesicular stomatitis virus; assay type: cell-based; conditions: concentrations ≤100 ug/ml
bacterial revertants = experiment: Ames test; assay type: cell-based; conditions: 10, 100, 200, 500, 1000 ug/plate
Procedure: Tests were performed according to the method described by Ames N. Bruce et al. (Mutation Research, 31 (1975), 347- 364). Test concentrations of rhamnolipid (II) were 10, 100, 200, 500, 1000 ug/plate.
In the range of tested rhamnolipid concentrations, the number of bacterial revertants per Petri dish was in the range of spontaneous revertants which are present without S9 mixture. Therefore, it can be concluded that Rhamnolipid (II) was not mutagenic at the tested concentrations.

[3] = test system: tissue plasminogen activator (t-PA) released by human umbilical cord venous endothelial cells; experiment: tissue plasminogen activator release; assay type: cell-based
mice C57B1/6 [4] = conditions: mouse, in vivo
Procedure: Tests were performed on mice C57B1/6, Animal source: Bantin and Kingman. This was done following the procedures described elsewhere in Technical Report Series, National Toxicology Program, U.S. Department of Health and Human services.
Examinations were made in all tests on the following tissues from each mouse necropsied: bone (femur), bone marrow (femur)-slide only, brain, colon, duodenum, testes, heart, kidneys, liver, lungs (infuse with formalin), pancreas, spleen, muscle, adrenal nodes, uterus, gastric.

Neurodermitis = experiment: clinical treatment of neurodermitis; assay type: in vivo, human; conditions: twice a day; occlusions up to 24 hours
Procedure: Two patients with Neurodermitis were treated at the beginning of 1992. Rhamnolipid II was applied on affected regions twice a day; occlusions were applied as well (up to 24 hours).
The treatment and monitoring of patients was, again, a "double blind" experiment. Other affected regions where corticosteroids were applied were used for comparison.

alpha-amylase = experiment: enzyme inhibition, alpha-amylase; assay type: biochemical
Procedure: as §1
The following enzymes were inhibited at the various rhamnolipid concentrations indicated:
as §2

alpha-chymotrypsin = experiment: enzyme inhibition, alpha-chymotrypsin; assay type: biochemical
Procedure: as §1, §2

[5] = five doses per day, intraperitoneal

CCCCCCCC(CC(=O)O)OC(=O)CC(CCCCCCC)O[C@@H]1O[C@@H](C)[C@H](O)[C@@H](O)[C@H]1O[C@@H]1O[C@@H](C)[C@H](O)[C@@H](O)[C@H]1O (stereo partly drawn) [Rhamnolipid (II), (alpha-L-rhamnopyranosyl-(1,2)alpha-L-rhamnopyranosyl)-3-hydroxydecanoyl-3-hydroxydecanoic acid]
effect on enzyme (alkalinephosphatase): no effect | lowest dose that caused hemolysis (citrate bovine blood; 15 min): 0.35 mg/mL | lowest dose that caused hemolysis (citrate bovine blood; 1 h): 0.25 mg/mL | lowest dose that caused hemolysis (citrate bovine blood; 24 h): 0.125 mg/mL | amount that led to hemolytic activity (citrate bovine blood; diluted in 2 ml isotonic solution of diluted citric bovine blood, lower did not): 0.25 mg | Minimum inhibitory concentration (MIC) (Candida albicans): > 0.5% | five dose toxicity (mice C57B1/6 [1]; [5]): 5 mg/kg | lower bracket dose (LBD) (mice C57B1/6 [1]; [5]): 45 mg/kg | upper bracket dose (UBD) (mice C57B1/6 [1]; [5]): 125 mg/kg | difference between rhamnolipid (II) and control (mice C57B1/6 [1]; fourth day after application): no statistical differences | antiviral activity [2]: no activity | mutagenicity (Ames test) (bacterial revertants): not mutagenic | mutagenicity (Ames test) (bacterial revertants; listed as rhamnolipid II): negative | t-PA release induced by PMA ([3]; 0.1 mg/ml, PMA induced): slightly inhibited | basal t-PA release ([3]; basal): no effect | pathohistological changes (mice C57B1/6 [4]): none of the regressive-progressive or inflammatory type of changes were detected | improvements versus corticosteroids (Neurodermitis): observed rapidly, faster than in cases when corticosteroids were applied | occurrence of relapses versus local corticosteroids (Neurodermitis): a bit later | concentration at which the enzyme was inhibited (alpha-amylase): 1 mg/mL | effect on enzyme (alpha-chymotrypsin): no effect
